The conditions of data set [1]: rcm bond, 14-membered ring, 1,2-dichloroethane.
Data set [2] deals with HCV NS3/4A protease (Hepatitis C virus genotype 1a (isolate H77) (HCV), UniProt P27958). In words: Inhibition assay (enzymatic assay) of full-length NS3 protease with NS4A cofactor. The data set is classed as biochemical. On the procedure: [Landro, 1997 #Biochem 36 9340-9348]. […] The solutions were stored at −20° C. between measurements.
[Liu, 1999 Analytical Biochemistry 267 331-335].

For data set [3], the system named is HCV type 1b replicon in Huh-7 luc/neo (Huh-Luc) cells. The data set can be described thus: Replicon assay: inhibition of HCV RNA replication in Huh-Luc cells (luciferase). It counts as cell-based. Conditions: luciferase activity, incubation of three days. On the procedure:
The in vitro antiviral activity against HCV of the compounds of formula (I) was tested in a cellular HCV replicon system based on Lohmann et al. (1999) Science 285:110-113, with the further modifications described by Krieger et al. (2001) Journal of Virology 75: 4614-4624, which is further exemplified in the examples section. This model, while not a complete infection model for HCV, is widely accepted as the most robust and efficient model of autonomous HCV RNA replication currently available. […] It will be appreciated that it is important to distinguish between compounds that specifically interfere with HCV functions from those that exert cytotoxic or cytostatic effects in the HCV replicon model, and as a consequence cause a decrease in HCV RNA or linked reporter enzyme concentration. Assays are known in the field for the evaluation of cellular cytotoxicity based for example on the activity of mitochondrial enzymes using fluorogenic redox dyes such as resazurin. Furthermore, cellular counter screens exist for the evaluation of non-selective inhibition of linked reporter gene activity, such as firefly luciferase. Appropriate cell types can be equipped by stable transfection with a luciferase reporter gene whose expression is dependent on a constitutively active gene promoter, and such cells can be used as a counter-screen to eliminate non-selective inhibitors.
The compounds of formula (I) were examined for activity in the inhibition of HCV RNA replication in a cellular assay. […] The cellular assay was based on a bicistronic expression construct, as described by Lohmann et al. (1999) Science vol. 285 pp. 110-113 with modifications described by Krieger et al. (2001) Journal of Virology 75: 4614-4624, in a multi-target screening strategy. In essence, the method was as follows.
The assay utilized the stably transfected cell line Huh-7 luc/neo (hereafter referred to as Huh-Luc). This cell line harbors an RNA encoding a bicistronic expression construct comprising the wild type NS3-NS5B regions of HCV type 1b translated from an Internal Ribosome Entry Site (IRES) from encephalomyocarditis virus (EMCV), preceded by a reporter portion (FfL-luciferase), and a selectable marker portion (neo^R, neomycine phosphotransferase). The construct is bordered by 5′ and 3′ NTRs (non-translated regions) from HCV type 1b. Continued culture of the replicon cells in the presence of G418 (neo^R) is dependent on the replication of the HCV RNA. The stably transfected replicon cells that express HCV RNA, which replicates autonomously and to high levels, encoding inter alia luciferase, are used for screening the antiviral compounds.
The replicon cells were plated in 384 well plates in the presence of the test and control compounds which were added in various concentrations. Following an incubation of three days, HCV replication was measured by assaying luciferase activity (using standard luciferase assay substrates and reagents and a Perkin Elmer ViewLux™ ultraHTS microplate imager). Replicon cells in the control cultures have high luciferase expression in the absence of any inhibitor. The inhibitory activity of the compound on luciferase activity was monitored on the Huh-Luc cells, enabling a dose-response curve for each test compound.

Data set [4] in a line: In vivo effects of ritonavir on the oral pharmacokinetics of Compound nr. 47 in rat. The note with it: male and female Sprague-Dawley rats, single oral 10 mg/kg Compound nr. 47, boosting with 10 mg/kg ritonavir about 30 minutes before, plasma. Here is the method:
Oral pharmacokinetics of Compound nr. 47 in male and female Sprague-Dawley rats after a single dose at 10 mg/kg, using a formulation in 50% PEG400/water and the influence of “boosting” with 10 mg/kg ritonavir were investigated.
Four male and four female Sprague-Dawley (SD)-rats (approx. body weight 200-250 g) were randomly divided into 2 groups of 2 males and females each (boosted and non-boosted) based on body weight. […] The animals were fasted shortly before the trial. Drinking water remained available ad libitum.
Rats from the non-boosted group received a single oral 10 mg/kg dose of Compound nr. 47, formulated as a 3 mg/ml 50% PEG400/water at pH 8. Rats from the boosted group received a single oral dose of ritonavir, about 30 minutes before single oral dosing with 10 mg/kg of Compound nr. 47. The drug formulations were administered by oral gavage.
From each rat, a 0.5 ml blood sample was collected at 0.5 h, 1 h, 2 h, 4 h and 8 h after dosing. Plasma concentrations were determined using HPLC-MS. Results are shown in the table 2 below, expressed as fold change in pharmacokinetic parameter of the boosted group as compared to the non-boosted group.

[5] abbreviates: full-length NS3 protease 1 nM, 25 μM NS4A cofactor, depsipeptide substrate, competitive inhibition model, read-out: Ki (μM) Enzymatic assay.

The values below come from US8741926B2, “Macrocyclic inhibitors of hepatitis C virus” (Tibotec Pharmaceuticals Ltd., priority 2005, dated 2014).

Where two headings read alike, the source gives them in different places.

HCV NS3/4A protease, sequence (P27958 1027-1657): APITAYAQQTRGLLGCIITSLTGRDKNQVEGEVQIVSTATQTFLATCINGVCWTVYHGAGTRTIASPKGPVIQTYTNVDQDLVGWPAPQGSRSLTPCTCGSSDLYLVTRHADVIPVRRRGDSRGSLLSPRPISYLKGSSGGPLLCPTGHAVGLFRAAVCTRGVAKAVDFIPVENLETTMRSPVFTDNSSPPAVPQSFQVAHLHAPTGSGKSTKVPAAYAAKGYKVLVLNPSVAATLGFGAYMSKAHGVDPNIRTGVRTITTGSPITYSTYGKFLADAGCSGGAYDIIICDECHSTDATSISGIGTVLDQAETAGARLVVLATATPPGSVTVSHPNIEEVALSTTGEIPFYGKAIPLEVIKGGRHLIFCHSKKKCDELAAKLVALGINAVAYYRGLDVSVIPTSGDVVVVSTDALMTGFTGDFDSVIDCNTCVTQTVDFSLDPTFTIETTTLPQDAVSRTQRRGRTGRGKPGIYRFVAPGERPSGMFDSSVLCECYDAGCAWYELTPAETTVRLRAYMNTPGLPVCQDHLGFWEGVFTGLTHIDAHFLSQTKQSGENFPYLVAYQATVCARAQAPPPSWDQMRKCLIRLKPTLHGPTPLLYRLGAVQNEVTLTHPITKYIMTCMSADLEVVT

With `CCOC(=O)C12CC1C=CCCCCN(C)C(=O)C1CC(Oc3cc(-c4cccc(C(C)C)n4)nc4c(C)c(OC)ccc34)CC1C(=O)N2` (stereo not shown), the ring closure, isolated yield in data set [1] (from C=CCCCCN(C)C(=O)C1CC(Oc2cc(-c3cccc(C(C)C)n3)nc3c(C)c(OC)ccc23)CC1C(=O)NC1(C(=O)OCC)CC1C=C, Hoveyda-Grubbs I (3 portions), 17.0 h) worked out at 66%.

On to `CCOC(=O)C12CC1C=CCCCCN(C)C(=O)C1CC(Oc3cc(-c4cccc(C)n4)nc4c(C)c(OC)ccc34)CC1C(=O)N2` (stereo not shown), for which the ring closure, isolated yield in data set [1] (from C=CCCCCN(C)C(=O)C1CC(Oc2cc(-c3cccc(C)n3)nc3c(C)c(OC)ccc23)CC1C(=O)NC1(C(=O)OCC)CC1C=C, Hoveyda-Grubbs II, 1.48 mM, 16.0 h) stood at 58%.

In general, Ki refers to the dissociation constant of the complex between target and ligand, obtained from inhibition or displacement. In general, EC50 refers to the concentration giving half of the maximal effect. High values mean weaker potency, low ones greater potency. With `COc1ccc2c(O[C@@H]3C[C@H]4C(=O)N[C@]5(C(=O)NS(=O)(=O)C6CC6)C[C@H]5/C=C\CCCCCNC(=O)N4C3)cc(-c3nc(C(C)C)cs3)nc2c1Cl` (stereo in doubt) [Compound 94, N-[[18-[8-chloro-2-[4-(isopropyl)thiazol-2-yl]-7-methoxyquinolin-4-yloxy]-2,15-dioxo-3,14,16-triazatricyclo[14.3.0.0^4,6]nonadec-7-en-4-yl]carbonyl]-(cyclopropyl)sulfonamide], the inhibitory constant (Ki) in data set [2] (setting [5]) is 0.0001 µM. For the same compound, in data set [3] (Hepatitis C virus, Huh-7, 72 h), the EC50 is 0.00326 µM.

Turning to `COc1ccc2c(O[C@@H]3C[C@H]4C(=O)N[C@]5(C(=O)NS(=O)(=O)C6(C)CC6)C[C@H]5/C=C\CCCCCNC(=O)N4C3)cc(-c3nc(C(C)C)cs3)nc2c1Cl` (stereo in doubt) [Compound 95, N-[[18-[8-chloro-2-[4-(isopropyl)thiazol-2-yl]-7-methoxyquinolin-4-yloxy]-2,15-dioxo-3,14,16-triazatricyclo[14.3.0.0^4,6]nonadec-7-en-4-yl]carbonyl](1-methylcyclopropyl)sulfonamide], the Ki in data set [2] (setting [5]) was 0.0001 µM. The same compound returned an EC50 in data set [3] (Hepatitis C virus, Huh-7, 72 h) of 0.00404 µM.

Consider `COc1ccc2c(O[C@@H]3C[C@H]4C(=O)N[C@]5(C(=O)NS(=O)(=O)C6CC6)C[C@H]5/C=C\CCCCN(C)C(=O)[C@@H]4C3)cc(-c3nc(C(C)C)cs3)nc2c1C` [Compound 47, N-[17-[2-(4-isopropylthiazole-2-yl)-7-methoxy-8-methylquinolin-4-yloxy]-13-methyl-2,14-dioxo-3,13-diazatricyclo[13.3.0.0^4,6]octadec-7-ene-4-carbonyl](cyclopropyl)sulfonamide], for which the “Cmax, fold change of the boosted group as compared to the non-boosted group” value in data set [4] is listed as 2.2 fold change. In data set [2], this compound showed an inhibition constant (Ki) of 0.0005 µM. Also, the EC50 in data set [3] (Hepatitis C virus, Huh-7, 72 h) is 0.00618 µM.

As for `COc1ccc2c(O[C@@H]3C[C@H]4C(=O)N[C@]5(C(=O)NS(=O)(=O)C6(C)CC6)C[C@H]5/C=C\CCCCN(C)C(=O)[C@@H]4C3)cc(-c3nc(C(C)C)cs3)nc2c1C` [Compound 48, N-[17-[2-(4-isopropylthiazole-2-yl)-7-methoxy-8-methylquinolin-4-yloxy]-13-methyl-2,14-dioxo-3,13-diazatricyclo[13.3.0.0^4,6]octadec-7-ene-4-carbonyl](1-methylcyclopropyl)sulfonamide], the inhibition constant Ki in data set [2] (setting [5]) was 0.00025 µM. This compound also yielded a 50% effective concentration (EC50) in data set [3] (Hepatitis C virus, Huh-7, 72 h) of 0.00233 µM.

With `COc1ccc2c(O[C@@H]3C[C@H]4C(=O)N[C@]5(C(=O)O)C[C@H]5/C=C\CCCCN(C)C(=O)[C@@H]4C3)cc(-c3nc(C(C)C)cs3)nc2c1Cl` [Compound 55, 17-[8-chloro-2-(4-isopropylthiazole-2-yl)-7-methoxyquinolin-4-yloxy]-13-methyl-2,14-dioxo-3,13-diazatricyclo[13.3.0.0^4,6]octadec-7-ene-4-carboxylic acid], the inhibitory constant (Ki) in data set [2] (setting [5]) turned out to be 0.005 µM. Besides, in data set [3] (Hepatitis C virus, Huh-7, 72 h), it took 0.367 µM to reach a half-maximal effect (EC50).

Turning to `COc1ccc2c(O[C@@H]3C[C@H]4C(=O)N[C@]5(C(=O)NS(=O)(=O)C6(C)CC6)C[C@H]5/C=C\CCCCN(C)C(=O)[C@@H]4C3)cc(-c3nc(C(C)C)cs3)nc2c1Cl` [Compound 57, N-[17-[8-chloro-2-(4-isopropylthiazole-2-yl)-7-methoxy-quinolin-4-yloxy]-13-methyl-2,14-dioxo-3,13-diazatricyclo[13.3.0.0^4,6]octadec-7-ene-4-carbonyl] (1-methylcyclopropyl)sulfonamide], the Ki in data set [2] (setting [5]) worked out at 0.0003 µM. The compound also came in with an EC50 in data set [3] (Hepatitis C virus, Huh-7, 72 h) of 0.00187 µM.

Take `COc1ccc2c(O[C@H]3C[C@H]4C(=O)NCCCCC/C=C\[C@@H]5C[C@@]5(C(=O)NS(=O)(=O)C5CC5)NC(=O)[C@@H]4C3)cc(-c3nc(C(C)C)cs3)nc2c1C` [Compound 82]: the Ki in data set [2] (setting [5]) came out at 0.0094 µM. For the same compound, a half-maximal effect in data set [3] (Hepatitis C virus, Huh-7, 72 h) (EC50) was put at 8.32 µM.

Consider “N-[18-[2-(4-isopropylthiazole-2-yl)-7-methoxy-8-methylquinolin-4-yl-oxy]-2,15-dioxo-3,14-diazatricyclo[14.3.0.0^4,6]nonadec-7-ene-4-carbonyl](cyclo-propyl)sulfonamide [Compound 81]”, for which the Ki in data set [2] (setting [5]) is 1 µM. In addition, the EC50 in data set [3] was 10 µM.
